# Data from patent publication US20020137929A1, “1 - (3-heterocyclylphenyl) isothiourea, -isourea, -guanidine and -amidine herbicidal agents” (Intellectual Property Department, BASF Aktiengesellschaft, priority 1998, published 2002).
# Columns and labels:
# ABUTH (Velvetleaf) = test: Postemergence herbicidal evaluation; assay type: in vivo, Abutilon theophrasti; details: postemergence
# Procedure, shortened: (§1)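 Scores (0–9) reflect plant stand, vigor, malformation, size, chlorosis and general appearance relative to control, read 4 to 5 weeks after treatment and averaged where tests were repeated. Application: about 0.0156–0.500 kg/ha sprayed at 40 psi onto two-week seedlings.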
# GALAP (Galium) = test: Postemergence herbicidal evaluation; assay type: in vivo, Galium aparine; details: postemergence
# Procedure, shortened: as §1
# ECHCG (Barnyardgrass) = test: Postemergence herbicidal evaluation; assay type: in vivo, Echinochloa crus-galli; details: postemergence
# Procedure, shortened: as §1
# SETVI (Foxtail, Green) = test: Postemergence herbicidal evaluation; assay type: in vivo, Setaria viridis; details: postemergence
# Procedure, shortened: as §1
# ORYSAT (Rice, Tebonnet) = test: Postemergence herbicidal evaluation; assay type: in vivo, Oryza sativa, (L.) Tebonnet; details: postemergence
# Procedure, shortened: as §1
# [1] = tested on: IPOHE (Morningglory, Ivyleaf); test: Preemergence herbicidal evaluation; assay type: in vivo, Ipomoea hederacea; details: rated 4-5 weeks after treatment
# Procedure, shortened: (§2)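 Each species is sown separately in potting soil over roughly an inch of soil before any emergence. The soil surface then receives an aqueous acetone spray delivering about 0.0156 to 0.500 kg/ha of compound. After four to five weeks, injury is scored from 0 to 9 relative to a control.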
# [2] = tested on: TRZAWR (Wheat, Winter, cv Riband); test: Preemergence herbicidal evaluation; assay type: in vivo, Triticum aestivum; details: rated 4-5 weeks after treatment
# Procedure, shortened: as §2
# ZEAMX (Corn, Field) = test: Preemergence herbicidal evaluation; assay type: in vivo, Zea mays; details: rated 4-5 weeks after treatment
# Procedure, shortened: as §2
# [3] = tested on: ECHORC (Watergrass (Calif.)); test: Preemergence weed control under flooded paddy conditions; assay type: in vivo, Echinochloa oryzoides; details: rated 3-4 weeks after treatment
# Procedure, shortened: (§3)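 Visual injury scored 0-9 against control three to four weeks post-treatment, greenhouse-grown. Application: acetone/water (50/50) solutions dosed directly into flood water (1.5-3 cm over silt loam, planted top 0.5 cm), roughly 0.0313 to 0.500 kg/ha active ingredient.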
# CYPIR (Rice Flatsedge) [4] = test: as above; assay type: in vivo, Cyperus iria; details: rated 3-4 weeks after treatment
# Procedure, shortened: as §3
# CYPIR (Rice Flatsedge) [5] = test: Postemergence weed control under flooded paddy conditions; assay type: in vivo, Cyperus iria; details: postemergence weeds, rated 3 to 4 weeks after treatment
# Procedure, shortened: (§4)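 Herbicidal effect is judged by eye on a 0–9 scale versus control, 3–4 weeks after dosing. Dosing is into flood water kept 1.5–3 cm over the soil, at about 0.0313–0.500 kg/ha in aqueous/acetone 50/50 v/v, on 3–5 cm weeds and 1.5–2.5-leaf rice seedlings.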
# CYPSE (Flatsedge) = test: as above; assay type: in vivo, Cyperus serotinus; details: postemergence weeds, rated 3 to 4 weeks after treatment
# Procedure, shortened: as §4
# [6] = tested on: SAGPY (Arrowhead (Pygmaea)); test: as above; assay type: in vivo, Sagittaria pygmaea; details: postemergence weeds, rated 3 to 4 weeks after treatment
# Procedure, shortened: as §4
smiles,measurement,setting,value
"CCOC(=O)C(c1ccc(Cl)cc1)N1C(=O)CSC1=Nc1cc(-n2c(=O)cc(C(F)(F)F)n(C)c2=O)c(F)cc1Cl (racemic) [Compound 79, Ethyl α-(p-chlorophenyl)-2-{{2-chloro-5-[3,6-dihydro-3-methyl-2,6-dioxo-4-(trifluoromethyl)-1(2H)-pyrimidinyl]-4-fluorophenyl}imino}-4-oxo-3-thiazolidineacetate, DL-]",ABUTH herbicidal rating,ABUTH (Velvetleaf); rate 0.0158 kg/ha,9.0
same,ABUTH herbicidal rating,ABUTH (Velvetleaf); rate 0.0315 kg/ha,9.0
same,ABUTH herbicidal rating,ABUTH (Velvetleaf); rate 0.0630 kg/ha,9.0
same,GALAP herbicidal rating,GALAP (Galium); rate 0.0158 kg/ha,1.0
same,GALAP herbicidal rating,GALAP (Galium); rate 0.0315 kg/ha,2.0
same,GALAP herbicidal rating,GALAP (Galium); rate 0.0630 kg/ha,1.0
same,ECHCG herbicidal rating,ECHCG (Barnyardgrass); rate 0.0158 kg/ha,1.0
same,ECHCG herbicidal rating,ECHCG (Barnyardgrass); rate 0.0315 kg/ha,1.0
same,ECHCG herbicidal rating,ECHCG (Barnyardgrass); rate 0.0630 kg/ha,1.0
same,SETVI herbicidal rating,"SETVI (Foxtail, Green); rate 0.0158 kg/ha",4.0
same,SETVI herbicidal rating,"SETVI (Foxtail, Green); rate 0.0315 kg/ha",1.0
same,SETVI herbicidal rating,"SETVI (Foxtail, Green); rate 0.0630 kg/ha",1.0
same,ORYSAT herbicidal rating,"ORYSAT (Rice, Tebonnet); rate 0.0158 kg/ha",2.5
same,ORYSAT herbicidal rating,"ORYSAT (Rice, Tebonnet); rate 0.0315 kg/ha",2.5
same,ORYSAT herbicidal rating,"ORYSAT (Rice, Tebonnet); rate 0.0630 kg/ha",4.0
same,Preemergence herbicidal rating IPOHE,[1]; rate 0.0313 kg/ha,0.0
same,Preemergence herbicidal rating IPOHE,[1]; rate 0.0625 kg/ha,0.0
same,Preemergence herbicidal rating IPOHE,[1]; rate 0.1250 kg/ha,0.0
same,Preemergence herbicidal rating IPOHE,[1]; rate 0.2500 kg/ha,1.0
same,Preemergence herbicidal rating TRZAWR,[2]; rate 0.0313 kg/ha,0.0
same,Preemergence herbicidal rating TRZAWR,[2]; rate 0.0625 kg/ha,1.0
same,Preemergence herbicidal rating TRZAWR,[2]; rate 0.1250 kg/ha,0.0
same,Preemergence herbicidal rating TRZAWR,[2]; rate 0.2500 kg/ha,1.0
same,Preemergence herbicidal rating ZEAMX,"ZEAMX (Corn, Field); rate 0.0313 kg/ha",1.0
same,Preemergence herbicidal rating ZEAMX,"ZEAMX (Corn, Field); rate 0.0625 kg/ha",1.0
same,Preemergence herbicidal rating ZEAMX,"ZEAMX (Corn, Field); rate 0.1250 kg/ha",1.0
same,Preemergence herbicidal rating ZEAMX,"ZEAMX (Corn, Field); rate 0.2500 kg/ha",2.0
same,ECHORC herbicidal effect rating,[3]; 0.0313 kg/ha,5.0
same,ECHORC herbicidal effect rating,[3]; 0.0625 kg/ha,6.0
same,ECHORC herbicidal effect rating,[3]; 0.1250 kg/ha,7.0
same,ECHORC herbicidal effect rating,[3]; 0.2500 kg/ha,8.0
same,CYPIR herbicidal effect rating,CYPIR (Rice Flatsedge) [4]; 0.0313 kg/ha,0.0
same,CYPIR herbicidal effect rating,CYPIR (Rice Flatsedge) [4]; 0.0625 kg/ha,0.0
same,CYPIR herbicidal effect rating,CYPIR (Rice Flatsedge) [4]; 0.1250 kg/ha,2.0
same,CYPIR herbicidal effect rating,CYPIR (Rice Flatsedge) [4]; 0.2500 kg/ha,6.0
same,Herbicidal rating CYPIR,CYPIR (Rice Flatsedge) [5]; Rate 0.0313 kg/ha,0.0
same,Herbicidal rating CYPIR,CYPIR (Rice Flatsedge) [5]; Rate 0.0625 kg/ha,0.0
same,Herbicidal rating CYPIR,CYPIR (Rice Flatsedge) [5]; Rate 0.1250 kg/ha,2.0
same,Herbicidal rating CYPIR,CYPIR (Rice Flatsedge) [5]; Rate 0.2500 kg/ha,6.0
same,Herbicidal rating CYPSE,CYPSE (Flatsedge); Rate 0.0313 kg/ha,0.0
same,Herbicidal rating CYPSE,CYPSE (Flatsedge); Rate 0.0625 kg/ha,0.0
same,Herbicidal rating CYPSE,CYPSE (Flatsedge); Rate 0.1250 kg/ha,0.0
same,Herbicidal rating CYPSE,CYPSE (Flatsedge); Rate 0.2500 kg/ha,9.0
same,Herbicidal rating SAGPY,[6]; Rate 0.0313 kg/ha,0.0
same,Herbicidal rating SAGPY,[6]; Rate 0.0625 kg/ha,0.0
same,Herbicidal rating SAGPY,[6]; Rate 0.1250 kg/ha,4.0
same,Herbicidal rating SAGPY,[6]; Rate 0.2500 kg/ha,4.0
"Cn1c(C(F)(F)F)cc(=O)n(-c2cc(N=C3SCC(=O)N3[C@H](Cc3ccccc3)C(=O)O)c(Cl)cc2F)c1=O [Compound 69, α-Benzyl-2-{{2-chloro-5-[3,6-dihydro-3-methyl-2,6-dioxo-4-(trifluoromethyl)-1(2H)-pyrimidinyl]-4-fluorophenyl}imino}-4-oxo-3-thiazolidineacetic acid, D-]",ABUTH herbicidal rating,ABUTH (Velvetleaf); rate 0.0158 kg/ha,9.0
same,ABUTH herbicidal rating,ABUTH (Velvetleaf); rate 0.0315 kg/ha,9.0
same,ABUTH herbicidal rating,ABUTH (Velvetleaf); rate 0.0630 kg/ha,9.0
same,GALAP herbicidal rating,GALAP (Galium); rate 0.0158 kg/ha,0.0
same,GALAP herbicidal rating,GALAP (Galium); rate 0.0315 kg/ha,1.0
same,GALAP herbicidal rating,GALAP (Galium); rate 0.0630 kg/ha,5.0
same,ECHCG herbicidal rating,ECHCG (Barnyardgrass); rate 0.0158 kg/ha,2.0
same,ECHCG herbicidal rating,ECHCG (Barnyardgrass); rate 0.0315 kg/ha,1.0
same,ECHCG herbicidal rating,ECHCG (Barnyardgrass); rate 0.0630 kg/ha,4.0
same,SETVI herbicidal rating,"SETVI (Foxtail, Green); rate 0.0158 kg/ha",3.0
same,SETVI herbicidal rating,"SETVI (Foxtail, Green); rate 0.0315 kg/ha",1.0
same,SETVI herbicidal rating,"SETVI (Foxtail, Green); rate 0.0630 kg/ha",1.0
same,ORYSAT herbicidal rating,"ORYSAT (Rice, Tebonnet); rate 0.0158 kg/ha",2.5
same,ORYSAT herbicidal rating,"ORYSAT (Rice, Tebonnet); rate 0.0315 kg/ha",3.0
same,ORYSAT herbicidal rating,"ORYSAT (Rice, Tebonnet); rate 0.0630 kg/ha",4.5
same,Preemergence herbicidal rating IPOHE,[1]; rate 0.0313 kg/ha,0.0
same,Preemergence herbicidal rating IPOHE,[1]; rate 0.0625 kg/ha,2.0
same,Preemergence herbicidal rating IPOHE,[1]; rate 0.1250 kg/ha,1.0
same,Preemergence herbicidal rating IPOHE,[1]; rate 0.2500 kg/ha,4.0
same,Preemergence herbicidal rating TRZAWR,[2]; rate 0.0156 kg/ha,0.0
same,Preemergence herbicidal rating TRZAWR,[2]; rate 0.0313 kg/ha,0.0
same,Preemergence herbicidal rating TRZAWR,[2]; rate 0.0625 kg/ha,0.0
same,Preemergence herbicidal rating TRZAWR,[2]; rate 0.1250 kg/ha,1.0
same,Preemergence herbicidal rating TRZAWR,[2]; rate 0.2500 kg/ha,1.0
same,Preemergence herbicidal rating ZEAMX,"ZEAMX (Corn, Field); rate 0.0156 kg/ha",0.0
same,Preemergence herbicidal rating ZEAMX,"ZEAMX (Corn, Field); rate 0.0313 kg/ha",0.0
same,Preemergence herbicidal rating ZEAMX,"ZEAMX (Corn, Field); rate 0.0625 kg/ha",0.0
same,Preemergence herbicidal rating ZEAMX,"ZEAMX (Corn, Field); rate 0.1250 kg/ha",3.0
same,Preemergence herbicidal rating ZEAMX,"ZEAMX (Corn, Field); rate 0.2500 kg/ha",3.0
same,ECHORC herbicidal effect rating,[3]; 0.0313 kg/ha,0.0
same,ECHORC herbicidal effect rating,[3]; 0.0625 kg/ha,4.0
same,ECHORC herbicidal effect rating,[3]; 0.1250 kg/ha,5.0
same,ECHORC herbicidal effect rating,[3]; 0.2500 kg/ha,7.0
same,CYPIR herbicidal effect rating,CYPIR (Rice Flatsedge) [4]; 0.0313 kg/ha,3.0
same,CYPIR herbicidal effect rating,CYPIR (Rice Flatsedge) [4]; 0.0625 kg/ha,3.0
same,CYPIR herbicidal effect rating,CYPIR (Rice Flatsedge) [4]; 0.1250 kg/ha,3.0
same,CYPIR herbicidal effect rating,CYPIR (Rice Flatsedge) [4]; 0.2500 kg/ha,3.0
same,Herbicidal rating CYPIR,CYPIR (Rice Flatsedge) [5]; Rate 0.0313 kg/ha,3.0
same,Herbicidal rating CYPIR,CYPIR (Rice Flatsedge) [5]; Rate 0.0625 kg/ha,3.0
same,Herbicidal rating CYPIR,CYPIR (Rice Flatsedge) [5]; Rate 0.1250 kg/ha,3.0
same,Herbicidal rating CYPIR,CYPIR (Rice Flatsedge) [5]; Rate 0.2500 kg/ha,3.0
same,Herbicidal rating CYPSE,CYPSE (Flatsedge); Rate 0.0313 kg/ha,3.0
same,Herbicidal rating CYPSE,CYPSE (Flatsedge); Rate 0.0625 kg/ha,3.0
same,Herbicidal rating CYPSE,CYPSE (Flatsedge); Rate 0.1250 kg/ha,9.0
same,Herbicidal rating CYPSE,CYPSE (Flatsedge); Rate 0.2500 kg/ha,9.0
same,Herbicidal rating SAGPY,[6]; Rate 0.0313 kg/ha,0.0
same,Herbicidal rating SAGPY,[6]; Rate 0.0625 kg/ha,0.0
same,Herbicidal rating SAGPY,[6]; Rate 0.1250 kg/ha,3.0
same,Herbicidal rating SAGPY,[6]; Rate 0.2500 kg/ha,3.0
